{
  "source": "patent US20220339178A1",
  "about": "“COMPOSITIONS AND METHODS FOR COGNITIVE PROTECTION OF POLLINATORS AGAINST PESTICIDES” (priority 2019, published 2022)",
  "key": {"[1]": {"tested_on": "Honeybees (Apis mellifera scutellata)", "experiment": "Classical conditioning of the proboscis extension response (PER): learning, 24 h memory retention, latency; flavonoids vs imidacloprid", "assay_type": "in vivo", "description": "Honeybees (Apis mellifera scutellata) were captured from established hives at the Apiary of the Pontificia Universidad Javeriana (Bogota, Colombia). Foragers were collected while leaving to forage between 8:00 am and 10:00 am (Matsumoto et al., J Neurosci Methods. 211(1):159-67. 2012). Bees were maintained in individual plastic chambers under laboratory conditions (photoperiod followed seasonal pattern; relative humidity: 63%; temperature: 18° C.). Food was provided once a day in a volume of 20 μL and varied in composition according to experimental treatments.\nControl (2M sugar water): fed once a day (20 μL) for three consecutive days;\nQuercetin (6.6 mM quercetin (Sigma-Aldrich: Q4951)-sucrose-water with DMSO 1% (Sigma-Aldrich: D8418): fed once a day for three days;\nRutin (1 mM rutin (Sigma-Aldrich R5143)-sucrose-water with DMSO 1%: fed once a day for three days;\nImidacloprid (1.16 nM Imidacloprid (Bayer)-sucrose-water: fed as a single dose (20 μL) 1.5 h before training;\nQuercetin-Imidacloprid: bees received the quercetin treatment (see above) and were fed Imidacloprid 1.5 h before training; and\nRutin-Imidacloprid: bees received the rutin treatment (see above) and were fed Imidacloprid 1.5 h before training.\nBees were trained using classical conditioning of the proboscis extension response (PER), a broadly used method to study learning and memory in bees. Briefly, bees received a soft current of clean air for 15 seconds to allow bees to accommodate. Then a soft current of 1-hexanol (Sigma-Aldrich: 471402) was injected for 10 seconds. Six seconds after injection of 1-hexanol, one of the antennae was stimulated with sucrose water (50% w/w), which leads to the reflexive extension of the proboscis, and the bee was allowed to drink for 4 seconds. Thus, the reward and the stimulus overlapped for four seconds. This sequence, recognized as a training trial, was repeated eight times. Time was determined using a metronome (2 Hz). Memory retention was tested 24 hours after the eight training trials. […] 12 bees were trained each session. Training was conducted by an experimenter blind to treatment.\nLearning was assessed from the total number of conditioned responses across the eight trials. Thus, each bee received a learning score between 0-7 (by definition, bees cannot show a learned response at the first trial). After 24 h, memory retention was assessed as the response to the presentation of 1-hexanol without a sucrose reward. Latency of response was quantified as the time between the onset of 1-hexanol stimulation and the onset of a response that led to a full extension of proboscis. Only bees being responsive to sucrose water across all training trials and the memory retention test were considered for analyses. Learning scores were compared across treatments using a Mann-Whitney test as data were not normally distributed (Shapiro-Wilk W test for the hypothesis that the data is from a Normal distribution: P<0.05 for all treatments). Comparisons of the learning score of bees across all treatments relative to Control bees were conducted using the Steel method adjusted as one or two-tailed tests. Additional post hoc comparisons were performed between Imid and Quer+Imid bees and between Imid and Rut+Imid bees. Memory retention was compared across groups using an overall Chi-Square test and independent tests for planned comparisons were performed using adjusted Wald tests for proportions. In all cases error due to multiple comparisons was controlled using the False Discovery Rate one stage method and adjusted p-values (q-values) are presented (Benjamini & Hochberg, Journal of the Royal Statistical Society. Series B (Methodological), 57(1):289-300. 1995; Pike, N., Methods in Ecology and Evolution, 2(3):278-282. 2011). All analyses were conducted using JMP v.14.0 (SAS Institute Inc). […]"}, "[2]": {"tested_on": "AChE", "details": "literature report; cited from earlier work"}, "[3]": {"tested_on": "butyrylcholinesterase (BChE)", "details": "literature report; cited from earlier work"}},
  "data": [
    {"smiles": "O=c1c(O)c(-c2ccc(O)c(O)c2)oc2cc(O)cc(O)c12", "note": "[Quercetin]", "values": [
      {"measurement": "memory retention, proportion difference relative to Control bees (Adjusted Wald test)", "setting": "[1]; conditioned PER after 24 h", "result": "−0.13"},
      {"measurement": "latency of response during learning acquisition relative to Control bees", "setting": "[1]; honey bees", "result": "not significantly different from Control"},
      {"measurement": "learning scores relative to bees in the Imid group", "setting": "[1]; honey bees prophylactically fed flavonoid for three days, then imidacloprid 1.5 h before training", "result": "significantly higher learning scores"},
      {"measurement": "learning scores relative to Control bees", "setting": "[1]; honey bees, 8 trials, score 0-7, quercetin 6.6 mM or rutin 1 mM once a day for three days, imidacloprid 1.16 nM 20 μL 1.5 h before training", "result": "significantly higher learning scores"},
      {"measurement": "inhibition of AChE", "setting": "[2]", "result": "concentration-dependent inhibition ability"},
      {"measurement": "inhibition of butyrylcholinesterase (BChE)", "setting": "[3]", "result": "concentration-dependent inhibition ability"}
    ]}
  ]
}
